{"source": "patent EP0349431B1", "about": "“Sucrose derivatives” (BEGHIN-SAY SOCIETE ANONYME, priority 1988, dated 1990)", "format_in_all_cases": "cell-based", "key": {"[1]": {"tested_on": "Escherichia coli (ATCC 10536)", "experiment": "Bacteriostatic activity (CMI), dilution technique in liquid medium, Exemple 9", "details": "read after 24 H incubation at 35°C", "procedure": "(§1) On a préparé des mélanges de solutions limpides de l'échantillon et du milieu de culture, contenant un adjuvant de dissolution, ajouté à raison de la quantité minimale nécessaire.\n(§2) On a introduit les solutions obtenues telles quelles ou diluées dans des tubes stériles sous un volume inférieur ou égal à 2,5 ml, que l'on a ensuite ajusté sinécessaire à 2,5 ml à l'aide d'eau stérile. On a alors ajouté à chaque tube 2,5 ml de bouillon nutritif préparé à concentration double, ensemencé de façon à contenir environ 1000 germes par ml et ayant la composition suivante : peptone bactériologique 10 g extrait de viande de boeuf 5 g chlorure de sodium 5 g eau déminéralisèe Q S P 500 ml pH ajusté à 7,2 à l'aide de potasse. stérilisation par fractions de 50 ml 20 mn à 120°C\n(§3) Les souches testées sont cultivées sur milieu gélosé \"trypticase-soja\" dont la compositon de formulation : peptone trypsique de caséine 15 g peptone papaïnique de soja 5 g chlorure de sodium 5 g gélose 15 g eau déminéralisée Q S P 1000 ml pH ajusté à l'aide de potasse à 7,3 stérilisation 20 mn à 120°C.\n(§4) Après incubation 18 H à 35°C on ensemence à l'aide de ces cultures des tubes de milieu liquide \"trypticase-soja\" de formulation : peptone trypsique de caséine 17 g peptone papaïnique de soja 3 g chlorure de sodium 5 g phosphate dipotassique 2,5 g glucose 2,5 g eau déminéralisée Q S P 1000 ml pH ajusté à 7,3 à l'aide de potasse stérilisation 20 mn à 120°C.\n(§5) Après 18 H d'incubation à 35°C, les cultures obtenues sont homogénéisées puis diluées.\n(§6) Les quatres souches suivantes ont été testées : • Streptoccus fecalis (ATCC 9790) • Escherichia coli (ATCC 10536) • Proteus morganii (ATCC 53185) • Staphylococcus (ATCC 6538P)\n(§7) On a effectué trois essais, en utilisant les gammes de concentrations suivantes de dipalmitate-6,6′-saccharose oxydé\n(§8) On a effectué l'incubation des tubes à 35°C. Les lectures ont été faites après 18, 24 et 48 H en comparaison avec des tubes témoins de croissance de chaque microorganisme testé, en présence d'un agent tensio-actif : Tween 80 (marque de fabrique d'Atlas Chemical Industries, Inc) pour l'essai N° 1 et Triton X 100, (marque de fabrique de Rohm & Haas Co) pour les essais N°2 et N°3. Les résultats, donnés dans le Tableau I ci-dessous, relevés après 24 H d'incubation, indiquent la concentration (mg/ml) testée en dipalmitate-6,6′-saccharose oxydé à partir de laquelle on observe une absence de développement bactérien pour chacune des souches étudiées."}, "[2]": {"tested_on": "Streptoccus fecalis (ATCC 9790)", "experiment": "Bacteriostatic activity (CMI), dilution technique in liquid medium, Exemple 9", "details": "read after 24 H incubation at 35°C", "procedure": "as §1, §2, §3, §4, §5, §6, §7, §8"}, "[3]": {"tested_on": "Staphylococcus (ATCC 6538P)", "experiment": "Bacteriostatic activity (CMI), dilution technique in liquid medium, Exemple 9", "details": "for concentration à partir de laquelle on observe une absence de développement bactérien: Triton X 100, read after 24 H incubation at 35°C", "procedure": "as §1, §2, §3, §4, §5, §6, §7, §8"}, "[4]": {"tested_on": "Proteus morganii (ATCC 53185)", "experiment": "Bacteriostatic activity (CMI), dilution technique in liquid medium, Exemple 9", "details": "read after 24 H incubation at 35°C", "procedure": "as §1, §2, §3, §4, §5, §6, §7, §8"}, "[5]": {"tested_on": "souches étudiées (Streptoccus fecalis, Escherichia coli, Proteus morganii, Staphylococcus)", "experiment": "Bacteriostatic activity (CMI), overall statement for the strains of Exemple 9", "details": "summary sentence in the text: good bacteriostatic activity, all strains of Exemple 9", "procedure": "as §1, §2\nLes souches testées sont cultivées sur milieu gélosé \"trypticase-soja\" dont la compositon de formulation : peptone trypsique de caséine 15 g peptone papaïnique de soja 5 g chlorure de sodium 5 g gélose 15 g eau déminéralisée Q S P 1000 ml pH ajusté à l'aide de potasse à 7,3 stérilisation 20 mn à 120°C. […]"}, "[6]": {"details": "Essai N°1, Tween 80, tested 0,1 - 1 - 10 mg/ml"}, "[7]": {"details": "Essai N°2, Triton X 100, tested 0,1 - 1,6 mg/ml"}, "[8]": {"details": "Essai N°3, Triton X 100, tested 0,006 - 3,2 mg/ml"}}, "data": [{"substance": "dipalmitate-6,6′-saccharose oxydé", "values": [{"measurement": "concentration à partir de laquelle on observe une absence de développement bactérien", "setting": "[1]; [6]", "value": 1, "unit": "mg/mL"}, {"measurement": "concentration à partir de laquelle on observe une absence de développement bactérien", "setting": "[1]; [7]", "value": "0,8 mg/ml"}, {"measurement": "concentration à partir de laquelle on observe une absence de développement bactérien", "setting": "[1]; [8]", "value": "1,6 mg/ml"}, {"measurement": "concentration à partir de laquelle on observe une absence de développement bactérien", "setting": "[2]; [6]", "value": 1, "unit": "mg/mL"}, {"measurement": "concentration à partir de laquelle on observe une absence de développement bactérien", "setting": "[2]; [7]", "value": "0,8 mg/ml"}, {"measurement": "concentration à partir de laquelle on observe une absence de développement bactérien", "setting": "[2]; [8]", "value": "0,8 mg/ml"}, {"measurement": "concentration à partir de laquelle on observe une absence de développement bactérien", "setting": "[3]; Essai N°2, tested 0,1 - 1,6 mg/ml", "value": "< 0,1 mg/ml"}, {"measurement": "concentration à partir de laquelle on observe une absence de développement bactérien", "setting": "[3]; Essai N°3, tested 0,006 - 3,2 mg/ml", "value": "0,01 mg/ml"}, {"measurement": "concentration suffisante pour inhiber son développement", "setting": "[3]; summary sentence in the text on Exemple 9", "value": "≤ 0,01 mg/ml"}, {"measurement": "concentration à partir de laquelle on observe une absence de développement bactérien", "setting": "[4]; [6]", "value": 1, "unit": "mg/mL"}, {"measurement": "concentration à partir de laquelle on observe une absence de développement bactérien", "setting": "[4]; [7]", "value": "0,2 mg/ml"}, {"measurement": "concentration à partir de laquelle on observe une absence de développement bactérien", "setting": "[4]; [8]", "value": "0,2 mg/ml"}, {"measurement": "concentration minimale inhibitrice (CMI)", "setting": "[5]", "value": "1,6 mg/ml"}]}]}
